Measurements as given in ChEMBL document CHEMBL3526097, “Preclinical disposition of GDC-0973 and prospective and retrospective analysis of human dose and efficacy predictions” (Drug Metab Dispos, 2012).

What was measured:
[1] = Efflux ratio of permeability from […] side in MDCK1 cells at 10 uM after 60 mins; format: ADME, cell-based, Canis lupus familiaris; conditions: dog, MDCK
[2] = system: Brain; experiment: Unbound concentration in mouse brain at 3 mg/kg after 2 hrs; format: ADME, organism-based; design: dose 3 mg/kg; conditions: in vivo
[3] = Volume of distribution at steady state in Beagle dog at 3 mg/kg, iv by LC-MS/MS analysis; format: ADME, organism-based, Canis lupus familiaris; design: dose 3 mg/kg, route intravenous; conditions: in vivo, read-out: Vdss
[4] = Volume of distribution at steady state in nu/nu mouse at 1 mg/kg, iv by LC-MS/MS analysis; format: ADME, organism-based; design: dose 1 mg/kg, route intravenous; conditions: in vivo, read-out: Vdss
[5] = Fraction unbound in mouse brain; format: ADME, tissue-based
[6] = Oral bioavailability in cynomolgus monkey at 3 mg/kg by LC-MS/MS analysis; format: ADME, organism-based, Macaca fascicularis; conditions: in vivo
[7] = system: Canis familiaris; experiment: AUC (infinity) in Beagle dog at 3 mg/kg, iv by LC-MS/MS analysis; format: ADME, organism-based, Canis lupus familiaris, Plasma; design: dose 3 mg/kg, route intravenous, time infinity; conditions: in vivo
[8] = Ratio of unbound drug level in brain to plasma in mouse at 3 mg/kg after 2 hrs; format: ADME, organism-based; design: dose 3 mg/kg; conditions: read-out: BPR
[9] = Plasma clearance in Beagle dog at 3 mg/kg, iv by LC-MS/MS analysis; format: ADME, organism-based, Canis lupus familiaris; design: dose 3 mg/kg, route intravenous
[10] = Tmax in Sprague-Dawley rat at 3 mg/kg, po by LC-MS/MS analysis; format: ADME, organism-based; design: dose 3 mg/kg, route oral; conditions: in vivo
[11] = system: Plasma; experiment: Fraction unbound in mouse plasma at 3 mg/kg after 2 hrs; format: ADME, organism-based; design: dose 3 mg/kg; conditions: in vivo
[12] = Drug uptake in tumor of mouse xenografted with human COLO205 cells at 3 mg/kg after 2 hrs; format: ADME, organism-based, Neoplasm, COLO 205; design: dose 3 mg/kg; conditions: read-out: Drug uptake
[13] = Oral bioavailability in Sprague-Dawley rat at 3 mg/kg by LC-MS/MS analysis; format: ADME, organism-based; conditions: in vivo
[14] = Terminal half life in Sprague-Dawley rat at 3 mg/kg, iv by LC-MS/MS analysis; format: ADME, organism-based; design: dose 3 mg/kg, route intravenous; conditions: in vivo, read-out: beta t1/2 (converted)
[15] = Volume of distribution at steady state in Sprague-Dawley rat at 3 mg/kg, iv by LC-MS/MS analysis; format: ADME, organism-based; design: dose 3 mg/kg, route intravenous; conditions: in vivo, read-out: Vdss
[16] = AUC (infinity) in Sprague-Dawley rat at 3 mg/kg, po by LC-MS/MS analysis; format: ADME, organism-based; design: time infinity, dose 3 mg/kg, route oral; conditions: plasma
[17] = Apparent permeability from basolateral to apical side of MDCK1 cells at 10 uM after 60 mins; format: ADME, cell-based, Canis lupus familiaris; conditions: dog, MDCK
[18] = Antiproliferative activity against human COLO205 cells expressing B-raf V600E mutant; format: functional, cell-based; conditions: COLO 205
[19] = system: Mus musculus; experiment: AUC (infinity) in nu/nu mouse at 1 mg/kg, iv by LC-MS/MS analysis; format: ADME, organism-based, Plasma; design: time infinity, dose 1 mg/kg, route intravenous; conditions: in vivo
[20] = system: Cynomolgus monkey; experiment: AUC (infinity) in cynomolgus monkey at 3 mg/kg, iv by LC-MS/MS analysis; format: ADME, organism-based, Macaca fascicularis, Plasma; design: time infinity, dose 3 mg/kg, route intravenous; conditions: in vivo
[21] = Terminal half life in nu/nu mouse at 1 mg/kg, iv by LC-MS/MS analysis; format: ADME, organism-based; design: dose 1 mg/kg, route intravenous; conditions: in vivo, read-out: beta t1/2 (converted)
[22] = system: Brain; experiment: Unbound AUC in mouse brain; format: ADME, tissue-based; conditions: in vivo
[23] = Cmax in cynomolgus monkey at 3 mg/kg, po by LC-MS/MS analysis; format: ADME, organism-based, Macaca fascicularis; design: dose 3 mg/kg, route oral; conditions: in vivo
[24] = Ratio of drug level in brain to plasma in mouse at 3 mg/kg after 2 hrs; format: ADME, organism-based; design: dose 3 mg/kg; conditions: read-out: BPR
[25] = system: Rattus norvegicus; experiment: AUC (infinity) in Sprague-Dawley rat at 3 mg/kg, iv by LC-MS/MS analysis; format: ADME, organism-based, Plasma; design: dose 3 mg/kg, route intravenous, time infinity; conditions: in vivo
[26] = system: COLO 205; experiment: Antitumor activity against human COLO205 cells expressing B-raf V600E mutant xenografted in po dosed mouse assessed as inhibition of tumor growth; format: functional, organism-based
[27] = Apparent permeability from apical to basolateral side of MDCK1 cells at 10 uM after 60 mins; format: ADME, cell-based, Canis lupus familiaris; conditions: dog, MDCK
[28] = biological target: Dual specificity mitogen-activated protein kinase kinase 1 (Homo sapiens, UniProt Q02750); experiment: Inhibition of MEK1 (unknown origin)
Sequence of Dual specificity mitogen-activated protein kinase kinase 1 (Q02750 whole entry): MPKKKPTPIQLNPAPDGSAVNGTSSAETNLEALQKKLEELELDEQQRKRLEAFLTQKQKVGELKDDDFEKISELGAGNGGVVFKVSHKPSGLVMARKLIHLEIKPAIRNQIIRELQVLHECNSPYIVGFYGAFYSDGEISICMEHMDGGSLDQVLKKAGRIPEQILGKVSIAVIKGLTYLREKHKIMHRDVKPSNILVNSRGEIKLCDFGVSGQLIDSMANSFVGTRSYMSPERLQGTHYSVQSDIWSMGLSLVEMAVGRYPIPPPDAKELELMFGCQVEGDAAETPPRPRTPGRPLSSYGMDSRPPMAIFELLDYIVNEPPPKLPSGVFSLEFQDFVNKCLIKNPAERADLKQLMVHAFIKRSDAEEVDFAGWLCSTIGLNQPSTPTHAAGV

[29] = system: MDR1; experiment: Apparent permeability from basolateral to apical side of MDCK1 cells expressing MDR1 at 25 uM after 2 hrs by LC-MS/MS analysis; format: ADME, cell-based, Canis lupus familiaris; conditions: dog, MDCK-MDR1
[30] = AUC (infinity) in nu/nu mouse at 3 mg/kg, po by LC-MS/MS analysis; format: ADME, organism-based; design: time infinity, dose 3 mg/kg, route oral; conditions: plasma
[31] = Ratio of drug level in tumor to plasma in mouse xenografted with human COLO205 cells at 3 mg/kg after 2 hrs; format: ADME, organism-based, COLO 205; design: dose 3 mg/kg
[32] = Terminal half life in Beagle dog at 3 mg/kg, iv by LC-MS/MS analysis; format: ADME, organism-based, Canis lupus familiaris; design: dose 3 mg/kg, route intravenous; conditions: in vivo, read-out: beta t1/2 (converted)
[33] = Volume of distribution at steady state in cynomolgus monkey at 3 mg/kg, iv by LC-MS/MS analysis; format: ADME, organism-based, Macaca fascicularis; design: dose 3 mg/kg, route intravenous; conditions: in vivo, read-out: Vdss
[34] = Tmax in nu/nu mouse at 3 mg/kg, po by LC-MS/MS analysis; format: ADME, organism-based; design: dose 3 mg/kg, route oral; conditions: in vivo
[35] = AUC (infinity) in cynomolgus monkey at 3 mg/kg, po by LC-MS/MS analysis; format: ADME, organism-based, Macaca fascicularis; design: time infinity, dose 3 mg/kg, route oral; conditions: plasma
[36] = biological target: ATP-dependent translocase ABCB1 (Homo sapiens, UniProt P08183); experiment: Inhibition of MDR1 (unknown origin) at 25 uM; format: ADME
Sequence of ATP-dependent translocase ABCB1 (P08183 whole entry): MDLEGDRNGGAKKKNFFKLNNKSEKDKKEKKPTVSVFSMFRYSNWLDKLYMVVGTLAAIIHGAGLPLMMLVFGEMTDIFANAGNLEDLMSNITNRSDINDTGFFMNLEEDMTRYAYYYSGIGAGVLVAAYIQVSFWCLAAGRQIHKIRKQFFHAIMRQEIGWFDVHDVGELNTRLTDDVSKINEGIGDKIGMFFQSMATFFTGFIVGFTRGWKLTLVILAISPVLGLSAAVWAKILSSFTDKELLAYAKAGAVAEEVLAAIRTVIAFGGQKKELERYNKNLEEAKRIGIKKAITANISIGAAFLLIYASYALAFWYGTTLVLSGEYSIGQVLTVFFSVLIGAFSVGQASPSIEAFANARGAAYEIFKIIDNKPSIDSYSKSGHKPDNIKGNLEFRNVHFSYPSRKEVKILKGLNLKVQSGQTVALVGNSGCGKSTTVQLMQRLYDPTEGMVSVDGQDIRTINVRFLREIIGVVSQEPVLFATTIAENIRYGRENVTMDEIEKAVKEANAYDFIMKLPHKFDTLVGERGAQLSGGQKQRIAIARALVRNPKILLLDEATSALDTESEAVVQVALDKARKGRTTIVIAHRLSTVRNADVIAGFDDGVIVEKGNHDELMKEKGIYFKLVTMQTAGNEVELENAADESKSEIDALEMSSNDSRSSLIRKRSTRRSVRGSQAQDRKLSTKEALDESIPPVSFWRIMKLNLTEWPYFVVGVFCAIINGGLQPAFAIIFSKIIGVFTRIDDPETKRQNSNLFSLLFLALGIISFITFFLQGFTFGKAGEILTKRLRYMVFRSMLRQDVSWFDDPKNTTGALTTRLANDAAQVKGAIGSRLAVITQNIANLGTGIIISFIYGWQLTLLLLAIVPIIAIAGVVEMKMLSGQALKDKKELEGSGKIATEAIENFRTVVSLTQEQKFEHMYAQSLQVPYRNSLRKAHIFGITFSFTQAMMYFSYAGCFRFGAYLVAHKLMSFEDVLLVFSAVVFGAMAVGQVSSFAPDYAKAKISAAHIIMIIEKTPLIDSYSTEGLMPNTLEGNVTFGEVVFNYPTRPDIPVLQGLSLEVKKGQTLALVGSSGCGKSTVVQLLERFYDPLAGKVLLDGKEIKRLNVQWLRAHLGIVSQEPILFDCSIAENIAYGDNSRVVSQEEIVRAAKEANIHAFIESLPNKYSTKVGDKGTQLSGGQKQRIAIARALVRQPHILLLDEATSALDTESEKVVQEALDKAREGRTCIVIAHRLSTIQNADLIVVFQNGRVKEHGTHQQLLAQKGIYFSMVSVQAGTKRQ

[37] = Tmax in cynomolgus monkey at 3 mg/kg, po by LC-MS/MS analysis; format: ADME, organism-based, Macaca fascicularis; design: dose 3 mg/kg, route oral; conditions: in vivo
[38] = Oral bioavailability in nu/nu mouse at 3 mg/kg by LC-MS/MS analysis; format: ADME, organism-based; conditions: in vivo
[39] = Plasma clearance in Sprague-Dawley rat at 3 mg/kg, iv by LC-MS/MS analysis; format: ADME, organism-based; design: dose 3 mg/kg, route intravenous
[40] = Cmax in nu/nu mouse at 3 mg/kg, po by LC-MS/MS analysis; format: ADME, organism-based; design: dose 3 mg/kg, route oral; conditions: in vivo
[41] = Terminal half life in cynomolgus monkey at 3 mg/kg, iv by LC-MS/MS analysis; format: ADME, organism-based, Macaca fascicularis; design: dose 3 mg/kg, route intravenous; conditions: in vivo, read-out: beta t1/2 (converted)
[42] = Cmax in Sprague-Dawley rat at 3 mg/kg, po by LC-MS/MS analysis; format: ADME, organism-based; design: dose 3 mg/kg, route oral; conditions: in vivo
[43] = Tmax in Beagle dog at 3 mg/kg, po by LC-MS/MS analysis; format: ADME, organism-based, Canis lupus familiaris; design: dose 3 mg/kg, route oral; conditions: in vivo
[44] = Oral bioavailability in Beagle dog at 3 mg/kg by LC-MS/MS analysis; format: ADME, organism-based, Canis lupus familiaris; conditions: in vivo
[45] = system: MDR1; experiment: Efflux ratio of permeability from […] side in MDCK1 cells expressing MDR1 at 25 uM after 2 hrs by LC-MS/MS analysis; format: ADME, cell-based, Canis lupus familiaris; conditions: dog, MDCK-MDR1

`O=C(c1ccc(F)c(F)c1Nc1ccc(I)cc1F)N1CC(O)([C@@H]2CCCCN2)C1` [COBIMETINIB] showed an efflux ratio at 1 h, 10 µM [1] of 3, a Concentration [2] of 0.1 nM and a Vd [3] of 3.99 L/kg. The Vd [4] was 9.4 L/kg, the fraction unbound [5] was 0.0012 and the bioavailability [6] was 19.6%. It also gave an AUC [7] of 17100 ng·h/mL, a Kp uu at 2 h [8] of 0.018 and a clearance [9] of 5.53 mL/min/kg. For the same compound, the Tmax [10] was 3.5 h, the “Cp(f)” value [11] was 5.7 nM and the concentration at 2 h [12] was 1560 nM. For the same compound, the bioavailability [13] was 69%, the half-life [14] was 13.3 h and the Vd [15] was 34.6 L/kg. The AUC(0-inf) [16] was 1590 ng·h/mL, the Papp B→A at 1 h, 10 µM [17] was 4 ×10⁻⁶ cm/s and the IC50 [18] was 8 nM. The AUC [19] was 935 ng·h/mL, the AUC [20] was 3340 ng·h/mL and the half-life [21] was 3.92 h. It also gave a fAUC [22] of 3 nM·h, a Cmax [23] of 50 ng/mL and a Kp at 2 h [24] of 0.5. The AUC [25] was 2320 ng·h/mL, the TGI [26] was “Dose-dependent effect” and the Papp A→B at 1 h, 10 µM [27] was 1.39 ×10⁻⁶ cm/s. For the same compound, the IC50 [28] was 4.2 nM, the Papp B→A at 2 h, 25 µM [29] was 35.4 ×10⁻⁶ cm/s and the AUC(0-inf) [30] was 1510 ng·h/mL. For the same compound, the Kp at 2 h [31] was 9, the half-life [32] was 9.19 h and the Vd [33] was 29.6 L/kg. For the same compound, the Tmax [34] was 0.25 h, the AUC(0-inf) [35] was 640 ng·h/mL and the “inhibition (INH)” value [36] was “Not Active”. The Tmax [37] was 2 h, the bioavailability [38] was 53.9% and the clearance [39] was 37.8 mL/min/kg. The Cmax [40] was 184 ng/mL, the half-life [41] was 10.3 h and the Cmax [42] was 193 ng/mL. For the same compound, the Tmax [43] was 2.67 h, the bioavailability [44] was 69.1% and the efflux ratio at 2 h, 25 µM [45] was 40.
